Measured values from patent US5179088A, “1-Carba(dethia)cephalosporin antibiotics” (Eli Lilly and Company, priority 1990, dated 1993).

Columns and labels:
Assay type in all cases: cell-based
Set-up in all cases: unit not given here
Acin = test: in vitro antibacterial activity, agar dilution (Acin)
Procedure: (§1) *minimum inhibitory concentrations were determined by the Agardilution

Staphylococcus Aureus = test: in vitro antibacterial activity, agar dilution (Staphylococcus aureus)
Procedure: as §1

Citro = test: in vitro antibacterial activity, agar dilution (Citro)
Procedure: as §1

Klebsiella = test: in vitro antibacterial activity, agar dilution (Klebsiella)
Procedure: as §1

Enterbacter Aerogenes = test: in vitro antibacterial activity, agar dilution (Enterobacter aerogenes)
Procedure: as §1

Staphylococcus Epi = test: in vitro antibacterial activity, agar dilution (Staphylococcus epi)
Procedure: as §1

Serratia = test: in vitro antibacterial activity, agar dilution (Serratia)
Procedure: as §1

Shig. sonn = test: in vitro antibacterial activity, agar dilution (Shig. sonn); conditions: strain N9
Procedure: as §1

Streptococcus A = test: in vitro antibacterial activity, agar dilution (Streptococcus A)
Procedure: as §1

Proteus morg = test: in vitro antibacterial activity, agar dilution (Proteus morg)
Procedure: as §1

Streptococcus D = test: in vitro antibacterial activity, agar dilution (Streptococcus D)
Procedure: as §1

Streptococcus pn = test: in vitro antibacterial activity, agar dilution (Streptococcus pn); conditions: strain PARK
Procedure: as §1

Enterbacter Cloacea = test: in vitro antibacterial activity, agar dilution (Enterobacter cloacae)
Procedure: as §1

Salmonella = test: in vitro antibacterial activity, agar dilution (Salmonella)
Procedure: as §1

Proteus incon = test: in vitro antibacterial activity, agar dilution (Proteus incon)
Procedure: as §1

E. coli = test: in vitro antibacterial activity, agar dilution (E. coli)
Procedure: as §1

Proteus rett = test: in vitro antibacterial activity, agar dilution (Proteus rett)
Procedure: as §1

H. Influ. = test: in vitro antibacterial activity, agar dilution (H. influ.)
Procedure: as §1

Pseudomonas = test: in vitro antibacterial activity, agar dilution (Pseudomonas)
Procedure: as §1

Measured: minimum inhibitory concentration

Cn1c([N+](=O)[O-])cnc1-c1nc(C2=C(C(=O)O)N3C(=O)[C@@H](NC(=O)/C(=N\O)c4csc(N)n4)[C@H]3CC2)cs1 [Example 33, 7β-[(2-Aminothiazol-4-yl)-Z-hydroxyiminoacetylamino]-1-carba-(1-dethia)-3-[2-(4-nitro-3-methylimidazol-2-yl)thiazol-4-yl]-3-cephem-4-carboxylicacid]
> 128: Staphylococcus Aureus; strain X400
4: Staphylococcus Aureus; strain S13E | Citro; strain CF17 | Staphylococcus Epi; strain 270 | Proteus morg; strain PR15
.25: Proteus incon; strain PR33
2: Klebsiella; strain KAE | Serratia; strain X99 | Shig. sonn | Salmonella; strain 1335 | E. coli; strain N10
16: Serratia; strain SE3 | Enterbacter Cloacea; strain 265A
.06: Staphylococcus Aureus; strain X1.1 | Proteus rett; strain C24 | H. Influ.; sens, strain C.L.
1: Klebsiella; strain X68 | Enterbacter Aerogenes; strain C32 | Enterbacter Aerogenes; strain EB17 | Staphylococcus Epi; strain 222 | Streptococcus D; strain 2041 | Enterbacter Cloacea; strain EB5 | E. coli; strain EC14 | E. coli; strain TEM
128: Acin; strain AC12 | Streptococcus D; strain X66
< .008: Streptococcus A; strain C203
.5: Staphylococcus Aureus; strain V41 | Salmonella; strain X514
.015: Klebsiella; strain X26 | Streptococcus pn | H. Influ.; res, strain 76

CON=C(C(=O)NC1C(=O)N2C(C(=O)[O-])=C(c3csc(-c4ccc[n+](C)c4)n3)CCC12)c1csc(N)n1 (stereo not drawn) [Example 34, 7β-[(2-aminothiazol-4-yl)-Z-methoximinoacetylamino]-1-carba-(1-dethia)-3-[2-(1-methyl-3-pyridyl)thiazol-4-yl]-3-cephem-4-carboxylic acid]
< .008: Klebsiella; strain X26
1: Staphylococcus Aureus; strain X1.1
4: Staphylococcus Epi; strain 222 | Enterbacter Cloacea; strain 265A
.015: Citro; strain CF17 | Streptococcus A; strain C203 | Streptococcus pn | Salmonella; strain X514 | E. coli; strain EC14 | H. Influ.; res, strain 76 | H. Influ.; sens, strain C.L.
16: Staphylococcus Epi; strain 270
.03: Enterbacter Aerogenes; strain C32 | Enterbacter Aerogenes; strain EB17 | Proteus incon; strain PR33 | E. coli; strain N10 | Proteus rett; strain C24
.25: Klebsiella; strain KAE
8: Staphylococcus Aureus; strain V41
.06: Klebsiella; strain X68 | Serratia; strain X99 | Shig. sonn | Proteus morg; strain PR15 | Salmonella; strain 1335
> 128: Staphylococcus Aureus; strain S13E | Streptococcus D; strain X66
128: Acin; strain AC12 | Staphylococcus Aureus; strain X400 | Streptococcus D; strain 2041
.125: Serratia; strain SE3 | Enterbacter Cloacea; strain EB5

CO/N=C(\C(=O)N[C@@H]1C(=O)N2C(C(=O)O)=C(c3csc(-c4ccc(O)c(O)c4)n3)CC[C@H]12)c1csc(N)n1 [Example 40, Sodium 7β-[(2-aminothiazol-4-yl)-Z-methoximinoacetylamino]-1-carba-(1-dethia)-3-2-(3,4-dihydroxyphenyl)thiazol-4-yl-3-cephem-4-carboxylate]
16: Staphylococcus Aureus; strain V41 | Pseudomonas; strain X528, retest | Staphylococcus Epi; strain 222 | Staphylococcus Epi; strain 222, retest | Staphylococcus Epi; strain 270, retest | Streptococcus D; strain 2041 | Streptococcus D; strain 2041, retest
8: Staphylococcus Aureus; strain V41, retest | Staphylococcus Aureus; strain X1.1 | Staphylococcus Aureus; strain X1.1, retest | Pseudomonas; strain X528 | Klebsiella; strain KAE
> 128: Staphylococcus Aureus; strain X400 | Staphylococcus Aureus; strain X400, retest | Streptococcus D; strain X66 | Streptococcus D; strain X66, retest
2: Acin; strain AC12, retest | Serratia; strain SE3, retest
64: Staphylococcus Aureus; strain S13E | Staphylococcus Aureus; strain S13E, retest | Pseudomonas; strain PS18 | Pseudomonas; strain PS18, retest | Enterbacter Cloacea; strain 265A
.03: Klebsiella; strain X26, retest | Enterbacter Aerogenes; strain EB17 | Salmonella; strain X514 | Salmonella; strain X514, retest | E. coli; strain TEM, retest | H. Influ.; res, strain 76, retest
4: Acin; strain AC12 | Citro; strain CF17 | Citro; strain CF17, retest | Klebsiella; strain KAE, retest | Proteus morg; strain PR15 | Proteus morg; strain PR15, retest
.06: Klebsiella; strain X68 | Klebsiella; strain X68, retest | Enterbacter Aerogenes; strain EB17, retest | Streptococcus A; strain C203 | Salmonella; strain 1335 | Salmonella; strain 1335, retest | E. coli; strain EC14 | E. coli; strain EC14, retest | E. coli; strain TEM
.125: Serratia; strain X99, retest | Streptococcus A; strain C203, retest | Streptococcus pn | Streptococcus pn; retest | Proteus incon; strain PR33 | E. coli; strain N10 | E. coli; strain N10, retest | Proteus rett; strain C24 | H. Influ.; sens, strain C.L. | H. Influ.; sens, strain C.L., retest
.015: Klebsiella; strain X26 | H. Influ.; res, strain 76
128: Pseudomonas; strain PS72, retest | Pseudomonas; strain X239, retest
1: Serratia; strain SE3
32: Staphylococcus Epi; strain 270 | Enterbacter Cloacea; strain 265A, retest
.25: Serratia; strain X99 | Enterbacter Cloacea; strain EB5 | Enterbacter Cloacea; strain EB5, retest | Proteus incon; strain PR33, retest | Proteus rett; strain C24, retest
.5: Enterbacter Aerogenes; strain C32 | Enterbacter Aerogenes; strain C32, retest

Nc1nc(C2=C(C(=O)O)N3C(=O)[C@@H](NC(=O)[C@H](N)c4ccccc4)[C@H]3CC2)cs1 [Example 41, 7β-(D-phenylglycylamino)-1-carba-(1-dethia)-3-(2-aminothiazol-4-yl)-3-cephem-4-carboxylic acid]
64: Staphylococcus Aureus; strain S13E | E. coli; strain EC14 | E. coli; strain TEM | H. Influ.; sens, strain C.L.
4: Staphylococcus Aureus; strain X1.1
16: Klebsiella; strain X26 | Staphylococcus Epi; strain 222
128: Klebsiella; strain KAE | Klebsiella; strain X68 | Enterbacter Aerogenes; strain C32 | Enterbacter Aerogenes; strain EB17 | Serratia; strain SE3 | Serratia; strain X99 | Proteus morg; strain PR15 | Enterbacter Cloacea; strain EB5 | Salmonella; strain 1335 | Salmonella; strain X514 | Proteus incon; strain PR33 | E. coli; strain N10
> 128: Acin; strain AC12 | Staphylococcus Aureus; strain X400 | Citro; strain CF17 | Pseudomonas; strain PS18 | Pseudomonas; strain PS72 | Pseudomonas; strain X239 | Pseudomonas; strain X528 | Streptococcus D; strain 2041 | Streptococcus D; strain X66 | Enterbacter Cloacea; strain 265A | Proteus rett; strain C24
2: Streptococcus A; strain C203 | Streptococcus pn
32: Staphylococcus Aureus; strain V41 | Staphylococcus Epi; strain 270 | H. Influ.; res, strain 76
